PubChem BioAssay (NCI)
Where “and” joins values, the source holds several entries; their conditions need not be identical. Identical values can stand only once.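 The compound was tested at five concentrations on cells cultured in 96-well plates, with a 48-hour exposure period. TGI marks complete inhibition of growth.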

Columns and labels:
Assay in all cases: NCI anticancer screen, dose series, 48 h
SNB-75 CNS = tested on: SNB-75 CNS
A549 NSCLC = tested on: A549 NSCLC
HT29 colon = tested on: HT29 colon
RPMI-8226 leukemia = tested on: RPMI-8226 leukemia
UACC-62 melanoma = tested on: UACC-62 melanoma
DLD-1 colon = tested on: DLD-1 colon
EKVX NSCLC = tested on: EKVX NSCLC
SK-MEL-28 melanoma = tested on: SK-MEL-28 melanoma
DMS 114 small cell lung = tested on: DMS 114 small cell lung
HOP-92 NSCLC = tested on: HOP-92 NSCLC
SK-MEL-2 melanoma = tested on: SK-MEL-2 melanoma
OVCAR-3 ovarian = tested on: OVCAR-3 ovarian
CCRF-CEM leukemia = tested on: CCRF-CEM leukemia
KM20L2 colon = tested on: KM20L2 colon
SNB-78 CNS = tested on: SNB-78 CNS
UACC-257 melanoma = tested on: UACC-257 melanoma
NCI-H23 lung = tested on: NCI-H23 lung
HOP-62 NSCLC = tested on: HOP-62 NSCLC
K-562 leukemia = tested on: K-562 leukemia
SF-539 CNS = tested on: SF-539 CNS
IGROV1 ovarian = tested on: IGROV1 ovarian
XF 498 CNS = tested on: XF 498 CNS
CAKI-1 renal = tested on: CAKI-1 renal
HCC-2998 colon = tested on: HCC-2998 colon
SW-620 colon = tested on: SW-620 colon
A498 renal = tested on: A498 renal
ACHN renal = tested on: ACHN renal
NCI-H226 lung = tested on: NCI-H226 lung
HCT-116 colon = tested on: HCT-116 colon
SN12C renal = tested on: SN12C renal
MALME-3M melanoma = tested on: MALME-3M melanoma
SNB-19 CNS = tested on: SNB-19 CNS
COLO 205 colon = tested on: COLO 205 colon
HOP-18 NSCLC = tested on: HOP-18 NSCLC
U251 CNS = tested on: U251 CNS
NCI-H522 lung = tested on: NCI-H522 lung
OVCAR-8 ovarian = tested on: OVCAR-8 ovarian
SK-MEL-5 melanoma = tested on: SK-MEL-5 melanoma
DMS 273 small cell lung = tested on: DMS 273 small cell lung
OVCAR-5 ovarian = tested on: OVCAR-5 ovarian
SK-OV-3 ovarian = tested on: SK-OV-3 ovarian
SF-295 CNS = tested on: SF-295 CNS
M19-MEL melanoma = tested on: M19-MEL melanoma
MOLT-4 leukemia = tested on: MOLT-4 leukemia
HL-60(TB) leukemia = tested on: HL-60(TB) leukemia
M14 melanoma = tested on: M14 melanoma
RXF-631 renal = tested on: RXF-631 renal
OVCAR-4 ovarian = tested on: OVCAR-4 ovarian
SF-268 CNS = tested on: SF-268 CNS
SR leukemia = tested on: SR leukemia
LOX IMVI melanoma = tested on: LOX IMVI melanoma
NCI-H460 lung = tested on: NCI-H460 lung
RXF 393 renal = tested on: RXF 393 renal
HCT-15 colon = tested on: HCT-15 colon
TK-10 renal = tested on: TK-10 renal
786-0 renal = tested on: 786-0 renal
UO-31 renal = tested on: UO-31 renal
KM12 colon = tested on: KM12 colon
LXFL 529 NSCLC = tested on: LXFL 529 NSCLC
T-47D breast = tested on: T-47D breast
PC-3 prostate = tested on: PC-3 prostate
HS 578T breast = tested on: HS 578T breast
NCI/ADR-RES ovarian = tested on: NCI/ADR-RES ovarian
MCF7 breast = tested on: MCF7 breast
BT-549 breast = tested on: BT-549 breast
MDA-MB-231 breast = tested on: MDA-MB-231 breast
DU-145 prostate = tested on: DU-145 prostate
MDA-MB-435 = tested on: MDA-MB-435

**Q.** `COc1ccc(/C=C/c2cc(OC)cc(OC)c2)cc1` was tested. Which TGI (SNB-75 CNS) did it give?
**A.** > 35.6 µM

**Q.** And the TGI (A549 NSCLC)?
**A.** > 100 µM

**Q.** What about the TGI (HT29 colon) of the same compound?
**A.** > 36.6 µM

**Q.** What about the TGI (RPMI-8226 leukemia) of the same compound?
**A.** 23.7 µM

**Q.** And the TGI (UACC-62 melanoma)?
**A.** > 100 µM

**Q.** What about the TGI (DLD-1 colon) of the same compound?
**A.** > 100 µM

**Q.** And the TGI (EKVX NSCLC)?
**A.** > 100 µM

**Q.** What about the TGI (SK-MEL-28 melanoma) of the same compound?
**A.** 65.7 µM

**Q.** And the TGI (DMS 114 small cell lung)?
**A.** 9.91 µM

**Q.** What about the TGI (HOP-92 NSCLC) of the same compound?
**A.** > 100 µM

**Q.** What about the TGI (SK-MEL-2 melanoma) of the same compound?
**A.** > 57 µM

**Q.** What about the TGI (OVCAR-3 ovarian) of the same compound?
**A.** 8.78 µM

**Q.** What about the TGI (CCRF-CEM leukemia) of the same compound?
**A.** 36.6 µM

**Q.** What about the TGI (KM20L2 colon) of the same compound?
**A.** 11.7 µM

**Q.** And the TGI (SNB-78 CNS)?
**A.** 8.71 µM

**Q.** And the TGI (UACC-257 melanoma)?
**A.** > 100 µM

**Q.** And the TGI (NCI-H23 lung)?
**A.** > 100 µM

**Q.** What about the TGI (HOP-62 NSCLC) of the same compound?
**A.** 32.6 µM

**Q.** And the TGI (K-562 leukemia)?
**A.** > 100 µM

**Q.** What about the TGI (SF-539 CNS) of the same compound?
**A.** 11 µM

**Q.** What about the TGI (IGROV1 ovarian) of the same compound?
**A.** > 100 µM

**Q.** What about the TGI (XF 498 CNS) of the same compound?
**A.** 98.9 µM

**Q.** And the TGI (CAKI-1 renal)?
**A.** 46.8 µM

**Q.** And the TGI (HCC-2998 colon)?
**A.** 33.2 µM

**Q.** What about the TGI (SW-620 colon) of the same compound?
**A.** > 100 µM

**Q.** What about the TGI (A498 renal) of the same compound?
**A.** > 61 µM

**Q.** And the TGI (ACHN renal)?
**A.** > 100 µM

**Q.** And the TGI (NCI-H226 lung)?
**A.** > 31.1 µM

**Q.** What about the TGI (HCT-116 colon) of the same compound?
**A.** > 58 µM

**Q.** What about the TGI (SN12C renal) of the same compound?
**A.** > 45.4 µM

**Q.** What about the TGI (MALME-3M melanoma) of the same compound?
**A.** > 100 µM

**Q.** What about the TGI (SNB-19 CNS) of the same compound?
**A.** > 100 µM

**Q.** What about the TGI (COLO 205 colon) of the same compound?
**A.** 10.7 µM

**Q.** And the TGI (HOP-18 NSCLC)?
**A.** > 100 µM

**Q.** And the TGI (U251 CNS)?
**A.** > 59.8 µM

**Q.** What about the TGI (NCI-H522 lung) of the same compound?
**A.** 11.6 µM

**Q.** And the TGI (OVCAR-8 ovarian)?
**A.** > 100 µM

**Q.** What about the TGI (SK-MEL-5 melanoma) of the same compound?
**A.** > 100 µM

**Q.** What about the TGI (DMS 273 small cell lung) of the same compound?
**A.** 15.6 µM

**Q.** And the TGI (OVCAR-5 ovarian)?
**A.** > 50.1 µM

**Q.** And the TGI (SK-OV-3 ovarian)?
**A.** 37.5 µM

**Q.** What about the TGI (SF-295 CNS) of the same compound?
**A.** > 31.3 µM

**Q.** What about the TGI (M19-MEL melanoma) of the same compound?
**A.** > 100 µM

**Q.** And the TGI (MOLT-4 leukemia)?
**A.** > 51 µM

**Q.** What about the TGI (HL-60(TB) leukemia) of the same compound?
**A.** 8.52 µM

**Q.** What about the TGI (M14 melanoma) of the same compound?
**A.** 53.1 µM

**Q.** What about the TGI (RXF-631 renal) of the same compound?
**A.** > 53.2 µM

**Q.** What about the TGI (OVCAR-4 ovarian) of the same compound?
**A.** > 100 µM

**Q.** And the TGI (SF-268 CNS)?
**A.** > 28.2 µM

**Q.** And the TGI (SR leukemia)?
**A.** > 100 µM

**Q.** And the TGI (LOX IMVI melanoma)?
**A.** > 100 µM

**Q.** What about the TGI (NCI-H460 lung) of the same compound?
**A.** > 34.4 µM

**Q.** And the TGI (RXF 393 renal)?
**A.** 10.7 µM

**Q.** What about the TGI (HCT-15 colon) of the same compound?
**A.** > 100 µM

**Q.** And the TGI (TK-10 renal)?
**A.** > 100 µM

**Q.** And the TGI (786-0 renal)?
**A.** 59.6 µM

**Q.** And the TGI (UO-31 renal)?
**A.** > 64.2 µM

**Q.** What about the TGI (KM12 colon) of the same compound?
**A.** > 69.1 µM

**Q.** And the TGI (LXFL 529 NSCLC)?
**A.** > 100 µM

**Q.** Which results are given for `O=S(=O)(O)c1ccc(-c2c3nc(c(-c4ccc(S(=O)(=O)O)cc4)c4ccc([nH]4)c(-c4ccc(S(=O)(=O)O)cc4)c4nc(c(-c5ccc(S(=O)(=O)O)cc5)c5ccc2[nH]5)C=C4)C=C3)cc1`?
**A.** TGI (SNB-75 CNS): > 100 µM and 55.1 µM; TGI (A549 NSCLC): > 100 µM; TGI (HT29 colon): > 100 µM; TGI (RPMI-8226 leukemia): > 100 µM; TGI (T-47D breast): > 100 µM; TGI (UACC-62 melanoma): > 100 µM; TGI (DLD-1 colon): > 100 µM; TGI (EKVX NSCLC): > 100 µM; TGI (SK-MEL-28 melanoma): > 100 µM and 73.4 µM; TGI (DMS 114 small cell lung): > 100 µM; TGI (HOP-92 NSCLC): > 100 µM and 76.8 µM; TGI (SK-MEL-2 melanoma): > 100 µM; TGI (OVCAR-3 ovarian): > 100 µM; TGI (CCRF-CEM leukemia): 79.9 µM and > 100 µM; TGI (KM20L2 colon): > 100 µM; TGI (SNB-78 CNS): > 100 µM; TGI (UACC-257 melanoma): > 100 µM; TGI (NCI-H23 lung): > 100 µM; TGI (HOP-62 NSCLC): > 100 µM; TGI (K-562 leukemia): > 100 µM; TGI (SF-539 CNS): > 100 µM; TGI (IGROV1 ovarian): > 100 µM; TGI (XF 498 CNS): > 100 µM; TGI (CAKI-1 renal): > 100 µM; TGI (HCC-2998 colon): > 100 µM; TGI (SW-620 colon): > 100 µM; TGI (A498 renal): > 100 µM; TGI (ACHN renal): > 100 µM; TGI (NCI-H226 lung): 93.6 µM; TGI (HCT-116 colon): > 100 µM; TGI (SN12C renal): > 100 µM; TGI (PC-3 prostate): > 100 µM; TGI (MALME-3M melanoma): > 100 µM; TGI (SNB-19 CNS): > 100 µM; TGI (COLO 205 colon): > 100 µM; TGI (HS 578T breast): > 100 µM; TGI (NCI/ADR-RES ovarian): > 100 µM; TGI (HOP-18 NSCLC): > 100 µM; TGI (U251 CNS): > 100 µM; TGI (NCI-H522 lung): > 100 µM; TGI (OVCAR-8 ovarian): > 100 µM; TGI (SK-MEL-5 melanoma): > 100 µM; TGI (DMS 273 small cell lung): > 100 µM; TGI (OVCAR-5 ovarian): > 100 µM; TGI (MCF7 breast): > 100 µM; TGI (SK-OV-3 ovarian): > 100 µM; TGI (SF-295 CNS): > 100 µM; TGI (M19-MEL melanoma): > 100 µM; TGI (MOLT-4 leukemia): 12.8 µM and > 100 µM; TGI (HL-60(TB) leukemia): > 100 µM; TGI (M14 melanoma): > 100 µM; TGI (RXF-631 renal): > 100 µM; TGI (OVCAR-4 ovarian): > 100 µM; TGI (SF-268 CNS): > 100 µM; TGI (BT-549 breast): 74.5 µM; TGI (SR leukemia): > 100 µM; TGI (LOX IMVI melanoma): > 100 µM; TGI (NCI-H460 lung): > 100 µM; TGI (MDA-MB-231 breast): > 100 µM; TGI (DU-145 prostate): > 100 µM; TGI (RXF 393 renal): 96.2 µM and 85.3 µM; TGI (HCT-15 colon): > 100 µM; TGI (TK-10 renal): 73.9 µM and > 100 µM; TGI (MDA-MB-435): > 100 µM; TGI (786-0 renal): > 100 µM; TGI (UO-31 renal): > 100 µM and 54.8 µM; TGI (KM12 colon): > 100 µM; TGI (LXFL 529 NSCLC): > 100 µM
